The values that follow come from article PMC5218480 (PLoS ONE, 2017).

Structures are written as SMILES.

For the assay, the system named is MV-4-11 cells. Kind of assay: Gene expression microarray analysis (Affymetrix PrimeView) and GSEA. Conditions: ProbeSet 11759094_a_at; LIST D. Details: RFU PODN (11730768_x_at) / Fold change /veh PODN (11730768_x_at) / RFU LINC00158 (11744669_a_at) / Fold change /veh LINC00158 (11744669_a_at) / RFU DUSP10 (11751237_a_at) / Fold change /veh DUSP10 (11751237_a_at) / RFU ID3 (11757404_x_at) / Fold change /veh ID3 (11757404_x_at) / RFU PLEKHG5 (11737974_s_at) / Fold change /veh PLEKHG5 (11737974_s_at) / RFU LRRC4B (11730491_at) / Fold change /veh LRRC4B (11730491_at) / RFU GIMAP4 (11747438_a_at) / Fold change /veh GIMAP4 (11747438_a_at) / RFU KRT8 (11758183_x_at) / Fold change /veh KRT8 (11758183_x_at) / RFU CNN1 (11734310_a_at) / Fold change /veh CNN1 (11734310_a_at) / RFU VPS37D (11726825_at) / Fold change /veh VPS37D (11726825_at) / RFU C10orf10 (11716522_x_at) / Fold change /veh C10orf10 (11716522_x_at) / RFU KIR2DL2 /// KIR2DL4 /// KIR2DL5A /// KIR2DL5B /// KIR2DS1 /// KIR2DS2 /// KIR2DS3 /// KIR2DS4 /// KIR3DL3 /// KIR3DL3 /// KIR3DS1 (11738374_at) / Fold change /veh KIR2DL2 /// KIR2DL4 /// KIR2DL5A /// KIR2DL5B /// KIR2DS1 /// KIR2DS2 /// KIR2DS3 /// KIR2DS4 /// KIR3DL3 /// KIR3DL3 /// KIR3DS1 (11738374_at) / RFU C1QL1 (11718748_at) / Fold change /veh C1QL1 (11718748_at) / RFU TMPRSS4 (11747572_a_at) / Fold change /veh TMPRSS4 (11747572_a_at) / RFU HAMP (11756126_x_at) / Fold change /veh HAMP (11756126_x_at) / RFU RNFT2 (11725882_a_at) / Fold change /veh RNFT2 (11725882_a_at) / RFU NR4A2 (11747474_a_at) / Fold change /veh NR4A2 (11747474_a_at) / RFU ABCC12 (11746883_a_at) / Fold change /veh ABCC12 (11746883_a_at) / RFU TMEM136 (11760407_x_at) / Fold change /veh TMEM136 (11760407_x_at) / RFU CLDN22 /// WWC2 (11732394_at) / Fold change /veh CLDN22 /// WWC2 (11732394_at) / RFU HLA-DPB1 (11760878_x_at) / Fold change /veh HLA-DPB1 (11760878_x_at) / RFU SPINT1 (11716480_a_at) / Fold change /veh SPINT1 (11716480_a_at) / RFU GAP43 (11754022_s_at) / Fold change /veh GAP43 (11754022_s_at) / RFU A4GNT (11735810_at) / Fold change /veh A4GNT (11735810_at) / RFU PRB3 (11715151_x_at) / Fold change /veh PRB3 (11715151_x_at) / RFU TUBB4B (11761932_at) / Fold change /veh TUBB4B (11761932_at) / RFU CAPN14 (11732068_a_at) / Fold change /veh CAPN14 (11732068_a_at) / RFU TMCC2 (11721928_a_at) / Fold change /veh TMCC2 (11721928_a_at) / RFU IRGQ (11745062_a_at) / Fold change /veh IRGQ (11745062_a_at) / RFU FAM174B (11720279_a_at) / Fold change /veh FAM174B (11720279_a_at) / RFU TMPRSS4 (11748680_a_at) / Fold change /veh TMPRSS4 (11748680_a_at) / RFU FAM212B (11763350_a_at) / Fold change /veh FAM212B (11763350_a_at) / RFU PLEKHG5 (11743358_a_at) / Fold change /veh PLEKHG5 (11743358_a_at) / RFU ZSCAN30 (11745921_a_at) / Fold change /veh ZSCAN30 (11745921_a_at) / RFU CMKLR1 (11741424_a_at) / Fold change /veh CMKLR1 (11741424_a_at) / RFU LOC101060620 /// MAPK8IP1 (11723275_at) / Fold change /veh LOC101060620 /// MAPK8IP1 (11723275_at) / RFU SPTSSB (11747773_x_at) / Fold change /veh SPTSSB (11747773_x_at) / RFU PRSS12 (11739890_at) / Fold change /veh PRSS12 (11739890_at) / RFU BIN1 (11741810_x_at) / Fold change /veh BIN1 (11741810_x_at) / RFU WNT11 (11732464_a_at) / Fold change /veh WNT11 (11732464_a_at) / RFU C10orf10 (11716521_a_at) / Fold change /veh C10orf10 (11716521_a_at) / RFU C5orf56 (11738089_at) / Fold change /veh C5orf56 (11738089_at) / RFU CYB561 (11721691_x_at) / Fold change /veh CYB561 (11721691_x_at) / RFU ANKRD19P (11752326_a_at) / Fold change /veh ANKRD19P (11752326_a_at) / RFU OR2T12 /// OR2T33 /// OR2T8 (11738714_s_at) / Fold change /veh OR2T12 /// OR2T33 /// OR2T8 (11738714_s_at) / RFU VCAN (11748164_a_at) / Fold change /veh VCAN (11748164_a_at) / RFU JSRP1 (11732532_at) / Fold change /veh JSRP1 (11732532_at) / RFU KRTAP10-11 (11738290_x_at) / Fold change /veh KRTAP10-11 (11738290_x_at) / RFU MYO3A (11730013_a_at) / Fold change /veh MYO3A (11730013_a_at) / RFU EBF3 (11725865_a_at) / Fold change /veh EBF3 (11725865_a_at) / RFU CAMK2N1 (11719241_x_at) / Fold change /veh CAMK2N1 (11719241_x_at) / RFU C5orf56 (11738088_a_at) / Fold change /veh C5orf56 (11738088_a_at) / RFU OLFML3 (11715873_a_at) / Fold change /veh OLFML3 (11715873_a_at) / RFU LOC100653217 /// NTM (11731650_a_at) / Fold change /veh LOC100653217 /// NTM (11731650_a_at) / RFU MAPK11 (11762145_a_at) / Fold change /veh MAPK11 (11762145_a_at) / RFU FIZ1 (11724087_x_at) / Fold change /veh FIZ1 (11724087_x_at) / RFU OASL (11726364_x_at) / Fold change /veh OASL (11726364_x_at) / RFU SOX15 (11748057_x_at) / Fold change /veh SOX15 (11748057_x_at) / RFU CD79A (11719716_a_at) / Fold change /veh CD79A (11719716_a_at) / RFU HIST1H1D (11736915_at) / Fold change /veh HIST1H1D (11736915_at) / RFU CASKIN2 (11723855_a_at) / Fold change /veh CASKIN2 (11723855_a_at) / RFU LOC730098 (11760151_x_at) / Fold change /veh LOC730098 (11760151_x_at) / RFU OR4N2 (11742367_at) / Fold change /veh OR4N2 (11742367_at) / RFU PRRT2 (11749266_a_at) / Fold change /veh PRRT2 (11749266_a_at) / RFU SNX32 (11753110_a_at) / Fold change /veh SNX32 (11753110_a_at) / RFU CDHR5 (11726645_a_at) / Fold change /veh CDHR5 (11726645_a_at) / RFU RCAN1 (11760418_a_at) / Fold change /veh RCAN1 (11760418_a_at) / RFU FAM167A (11723789_a_at) / Fold change /veh FAM167A (11723789_a_at) / RFU FAM26E (11764081_at) / Fold change /veh FAM26E (11764081_at) / RFU ISYNA1 (11749810_s_at) / Fold change /veh ISYNA1 (11749810_s_at) / RFU ACY1 (11761880_at) / Fold change /veh ACY1 (11761880_at) / RFU 11764098_at / Fold change /veh 11764098_at / RFU SAMD14 (11745864_x_at) / Fold change /veh SAMD14 (11745864_x_at) / RFU NPB (11741838_a_at) / Fold change /veh NPB (11741838_a_at) / RFU TMPRSS6 (11731388_a_at) / Fold change /veh TMPRSS6 (11731388_a_at) / RFU KRTAP10-2 (11738614_at) / Fold change /veh KRTAP10-2 (11738614_at) / RFU ARHGAP8 /// PRR5-ARHGAP8 (11727945_x_at) / Fold change /veh ARHGAP8 /// PRR5-ARHGAP8 (11727945_x_at) / RFU KRTAP5-7 /// NADSYN1 (11734609_at) / Fold change /veh KRTAP5-7 /// NADSYN1 (11734609_at) / RFU RASL12 (11751679_a_at) / Fold change /veh RASL12 (11751679_a_at) / RFU CDKN2B (11736163_a_at) / Fold change /veh CDKN2B (11736163_a_at) / RFU PRF1 (11729649_at) / Fold change /veh PRF1 (11729649_at) / RFU, ZNF638 /// ZNF638-IT1 / Fold change vs veh, ZNF638 /// ZNF638-IT1 / RFU, PANK3 / Fold change vs veh, PANK3 / RFU, SH3YL1 / Fold change vs veh, SH3YL1 / RFU, ZEB2 / Fold change vs veh, ZEB2 / RFU, NRIP1 / Fold change vs veh, NRIP1 / RFU, PTTG1IP / Fold change vs veh, PTTG1IP / RFU, CAPN2 / Fold change vs veh, CAPN2 / RFU, MED14 / Fold change vs veh, MED14 / RFU, SNORA58 / Fold change vs veh, SNORA58 / RFU, C1orf63 / Fold change vs veh, C1orf63 / RFU, LRRFIP1 / Fold change vs veh, LRRFIP1 / RFU, NDUFAF7 / Fold change vs veh, NDUFAF7 / RFU, SLC12A2 / Fold change vs veh, SLC12A2 / RFU, IBTK / Fold change vs veh, IBTK / RFU, ESF1 / Fold change vs veh, ESF1 / Fold change vs veh, TMEM50B / RFU, TAOK1 / Fold change vs veh, TAOK1 / RFU, ACBD3 / Fold change vs veh, ACBD3 / RFU, TMA16 / Fold change vs veh, TMA16 / RFU, RWDD3 / Fold change vs veh, RWDD3 / RFU, BCAT1 / Fold change vs veh, BCAT1 / RFU, EDEM3 / Fold change vs veh, EDEM3 / RFU, TMEM33 / Fold change vs veh, TMEM33 / RFU, WDR75 / Fold change vs veh, WDR75 / RFU, AHCTF1 / Fold change vs veh, AHCTF1 / RFU, TFRC / Fold change vs veh, TFRC / RFU, ZDHHC17 / Fold change vs veh, ZDHHC17 / RFU, NOM1 / Fold change vs veh, NOM1 / RFU, ARL8B / Fold change vs veh, ARL8B / RFU, ZBTB11 / Fold change vs veh, ZBTB11 / RFU, TAMM41 / Fold change vs veh, TAMM41 / RFU, KIAA1704 /// LOC100996395 / Fold change vs veh, KIAA1704 /// LOC100996395 / RFU, ING1 / Fold change vs veh, ING1 / RFU, TRMT61B / Fold change vs veh, TRMT61B / RFU, FUBP3 / Fold change vs veh, FUBP3 / RFU, TP53 / Fold change vs veh, TP53 / RFU, TNKS2 / Fold change vs veh, TNKS2 / RFU, ZFP14 / Fold change vs veh, ZFP14 / RFU, ACTR2 / Fold change vs veh, ACTR2 / RFU, PPP3R1 / Fold change vs veh, PPP3R1 / RFU, PIK3R1 / Fold change vs veh, PIK3R1 / RFU, HNRNPA1 / Fold change vs veh, HNRNPA1 / RFU, RNF170 / Fold change vs veh, RNF170 / RFU, ZNF28 / Fold change vs veh, ZNF28 / RFU, RNGTT / Fold change vs veh, RNGTT / RFU, OGT / Fold change vs veh, OGT / RFU, BRD1 / Fold change vs veh, BRD1 / RFU, MARS / Fold change vs veh, MARS / RFU, ZNF655 / Fold change vs veh, ZNF655 / RFU, FAHD1 / Fold change vs veh, FAHD1 / RFU, BDP1 / Fold change vs veh, BDP1 / RFU, LRRCC1 / Fold change vs veh, LRRCC1 / RFU, ARID1A / Fold change vs veh, ARID1A / RFU, ZNF146 / Fold change vs veh, ZNF146 / RFU, ZNF330 / Fold change vs veh, ZNF330 / RFU, GPN3 / Fold change vs veh, GPN3 / RFU, C9orf123 / Fold change vs veh, C9orf123 / RFU, N4BP2L2 / Fold change vs veh, N4BP2L2 / RFU, ARFIP1 / Fold change vs veh, ARFIP1 / RFU, FAM179B / Fold change vs veh, FAM179B / RFU, BCL10 / Fold change vs veh, BCL10 / RFU, UHRF1BP1L / Fold change vs veh, UHRF1BP1L / RFU, BET1 / Fold change vs veh, BET1 / RFU, CNOT2 / Fold change vs veh, CNOT2 / RFU, ZNF268 / Fold change vs veh, ZNF268 / Fold change vs veh, ZNF507 / RFU, DGCR2 / Fold change vs veh, DGCR2 / RFU, WDSUB1 / Fold change vs veh, WDSUB1 / Fold change vs veh, HSP90B1 /// MIR3652 / RFU, ADSS / Fold change vs veh, ADSS / RFU, GK / Fold change vs veh, GK / RFU, ZNF148 / Fold change vs veh, ZNF148 / RFU, TAF9 / Fold change vs veh, TAF9 / RFU, SLC1A5 / Fold change vs veh, SLC1A5 / RFU, SLMO2 / Fold change vs veh, SLMO2 / RFU, ABCC4 / Fold change vs veh, ABCC4 / RFU, LOC101060439 /// RAP1B / Fold change vs veh, LOC101060439 /// RAP1B / RFU, RFX7 / Fold change vs veh, RFX7 / RFU, GTPBP10 / Fold change vs veh, GTPBP10 / RFU, CNEP1R1 / Fold change vs veh, CNEP1R1 / RFU, BIVM-ERCC5 /// ERCC5 / Fold change vs veh, BIVM-ERCC5 /// ERCC5 / RFU, ILF3 / Fold change vs veh, ILF3 / RFU 11762660_at / Fold change /veh 11762660_at / RFU VCAN (11757783_s_at) / Fold change /veh VCAN (11757783_s_at) / RFU DDX43 (11728927_at) / Fold change /veh DDX43 (11728927_at) / RFU KRT8 (11758188_x_at) / Fold change /veh KRT8 (11758188_x_at) / RFU NKD1 (11759106_at) / Fold change /veh NKD1 (11759106_at) / RFU SRD5A1 (11742802_a_at) / Fold change /veh SRD5A1 (11742802_a_at) / RFU TPSAB1 /// TPSB2 (11721975_s_at) / Fold change /veh TPSAB1 /// TPSB2 (11721975_s_at) / RFU GSTM3 (11746129_a_at) / Fold change /veh GSTM3 (11746129_a_at) / RFU IL23R (11737362_x_at) / Fold change /veh IL23R (11737362_x_at) / RFU TMEM51 (11727254_a_at) / Fold change /veh TMEM51 (11727254_a_at) / RFU PIWIL2 (11732686_x_at) / Fold change /veh PIWIL2 (11732686_x_at) / RFU ORM1 (11744905_x_at) / Fold change /veh ORM1 (11744905_x_at) / RFU CCDC152 (11743942_at) / Fold change /veh CCDC152 (11743942_at) / RFU ECM1 (11717891_a_at) / Fold change /veh ECM1 (11717891_a_at) / RFU IL23R (11748794_a_at) / Fold change /veh IL23R (11748794_a_at) / RFU TNFAIP8L3 (11732012_x_at) / Fold change /veh TNFAIP8L3 (11732012_x_at) / RFU MBOAT4 (11741988_at) / Fold change /veh MBOAT4 (11741988_at) / RFU 11764193_at / Fold change /veh 11764193_at / RFU TMEM53 (11763286_at) / Fold change /veh TMEM53 (11763286_at) / RFU MAGEB2 (11727129_at) / Fold change /veh MAGEB2 (11727129_at) / RFU TMEM200A (11744735_a_at) / Fold change /veh TMEM200A (11744735_a_at) / RFU CCDC152 (11751479_a_at) / Fold change /veh CCDC152 (11751479_a_at) / RFU FAM211A (11726209_a_at) / Fold change /veh FAM211A (11726209_a_at) / RFU RGS16 (11746705_a_at) / Fold change /veh RGS16 (11746705_a_at) / RFU VCAN (11755009_s_at) / Fold change /veh VCAN (11755009_s_at) / RFU RHOB (11743442_s_at) / Fold change /veh RHOB (11743442_s_at) / RFU RGS16 (11720943_a_at) / Fold change /veh RGS16 (11720943_a_at) / RFU RGS16 (11720944_at) / Fold change /veh RGS16 (11720944_at) / RFU, VPS4B / Fold change vs veh, VPS4B / RFU, CREB1 / Fold change vs veh, CREB1 / RFU, DNAJC13 / Fold change vs veh, DNAJC13 / RFU, GNAQ / Fold change vs veh, GNAQ / RFU, CDK5R1 / Fold change vs veh, CDK5R1 / RFU, ZRANB3 / Fold change vs veh, ZRANB3 / RFU, CUL4A / Fold change vs veh, CUL4A / RFU, CCNY / Fold change vs veh, CCNY / RFU, UFL1 / Fold change vs veh, UFL1 / RFU, COG3 / Fold change vs veh, COG3 / RFU, DIAPH2 / Fold change vs veh, DIAPH2 / RFU, SKA2 / Fold change vs veh, SKA2 / RFU, AFF3 / Fold change vs veh, AFF3 / RFU, LMF1 / Fold change vs veh, LMF1 / RFU, IPO11 / Fold change vs veh, IPO11 / RFU, DFFB / Fold change vs veh, DFFB / RFU, FOXP1 / Fold change vs veh, FOXP1 / RFU, CARD8 / Fold change vs veh, CARD8 / RFU, STRN3 / Fold change vs veh, STRN3 / RFU, ADK / Fold change vs veh, ADK / RFU, RASSF2 / Fold change vs veh, RASSF2 / RFU, WIPF1 / Fold change vs veh, WIPF1 / RFU, LARP1B / Fold change vs veh, LARP1B / RFU, RASA1 / Fold change vs veh, RASA1 / RFU, RB1 / Fold change vs veh, RB1 / RFU, PPFIA1 / Fold change vs veh, PPFIA1 / RFU, MAT2A / Fold change vs veh, MAT2A / RFU, CCT5 / Fold change vs veh, CCT5 / RFU, WDR92 / Fold change vs veh, WDR92 / RFU, CUX1 / Fold change vs veh, CUX1 / RFU, TTC7A / Fold change vs veh, TTC7A / RFU, TMEM135 / Fold change vs veh, TMEM135 / RFU, DEPTOR / Fold change vs veh, DEPTOR / RFU, CPM / Fold change vs veh, CPM / RFU, DNAJB6 / Fold change vs veh, DNAJB6 / RFU, CACNA2D3 / Fold change vs veh, CACNA2D3 / RFU, DTX4 / Fold change vs veh, DTX4 / RFU, TFCP2 / Fold change vs veh, TFCP2 / RFU, GMCL1 /// GMCL1P1 / Fold change vs veh, GMCL1 /// GMCL1P1 / RFU, AEBP2 / Fold change vs veh, AEBP2 / RFU, SNHG1 /// SNORD22 /// SNORD25 /// SNORD26 /// SNORD27 /// SNORD28 /// SNORD29 /// SNORD31 / Fold change vs veh, SNHG1 /// SNORD22 /// SNORD25 /// SNORD26 /// SNORD27 /// SNORD28 /// SNORD29 /// SNORD31 / Fold change (Aza/veh), C12orf56 (ProbeSet 11735607_a_at) / Fold change (ACY-1035/veh), C12orf56 (ProbeSet 11735607_a_at) / Fold change (Aza/veh), FGFR1OP (ProbeSet 11751329_s_at) / Fold change (ACY-1035/veh), FGFR1OP (ProbeSet 11751329_s_at) / Fold change (Aza/veh), VPS36 (ProbeSet 11739960_a_at) / Fold change (ACY-1035/veh), VPS36 (ProbeSet 11739960_a_at) / RFU SYPL1 (11715823_x_at) / Fold change /veh SYPL1 (11715823_x_at) / RFU IGFBP7 (11715501_s_at) / Fold change /veh IGFBP7 (11715501_s_at) / RFU REEP3 (11722064_at) / Fold change /veh REEP3 (11722064_at) / RFU IGLL1 (11728026_x_at) / Fold change /veh IGLL1 (11728026_x_at): dose or concentration left out as unconfirmed. It is filed as cell-based, human.

Consider `Nc1ncn([C@@H]2O[C@H](CO)[C@@H](O)[C@H]2O)c(=O)n1` [azacitidine], for which the “RFU, GNAQ” value was found to be 421.57 RFU.
